Experimental data: patent US12167995B2, “[((1R,2S,5R)-2-isopropyl-5-methyl-cyclohexanecarbonyl)-amino]-acetic acid isopropyl ester for treatment of chronic cough” (AXALBION SA, priority 2019, dated 2024)
“Also recorded” adds a separate entry of the source.

Legend:
human TRPM8 = target: T1, human TRPM8 (Homo sapiens, UniProt Q7Z2W7); test: FLIPR calcium assay on cloned human TRPM8 channels expressed in CHO cells; assay type: cell-based
T1 construct: host or cells: CHO cells
Method: AX-8 potency was assessed using Fluorescence Imaging Plate Reader (FLIPR®) assays (study performed by ChanTest/Charles River). The in vitro effects were evaluated on cloned human TRPM8 channels expressed in CHO cells using a Fluo-8 calcium kit and a Fluorescence Imaging Plate Reader ([…]™) instrument. Changes is fluorescence intensity, reflecting the calcium flux through hTRPM8, were measured and the area under the signals (area under the curve, AUC) calculated and expressed in relative light units. Changes induced by the vehicle (HEPES-buffered physiological saline solution, HB-PS) were subtracted.

hTRPA1 = target: T2, hTRPA1 (Homo sapiens, UniProt O75762); test: FLIPR calcium assay, selectivity against hTRPA1 (expressed in CHO); assay type: cell-based
T2 construct: expressed in transfected cells; host or cells: CHO
T2 sequence (O75762 whole entry): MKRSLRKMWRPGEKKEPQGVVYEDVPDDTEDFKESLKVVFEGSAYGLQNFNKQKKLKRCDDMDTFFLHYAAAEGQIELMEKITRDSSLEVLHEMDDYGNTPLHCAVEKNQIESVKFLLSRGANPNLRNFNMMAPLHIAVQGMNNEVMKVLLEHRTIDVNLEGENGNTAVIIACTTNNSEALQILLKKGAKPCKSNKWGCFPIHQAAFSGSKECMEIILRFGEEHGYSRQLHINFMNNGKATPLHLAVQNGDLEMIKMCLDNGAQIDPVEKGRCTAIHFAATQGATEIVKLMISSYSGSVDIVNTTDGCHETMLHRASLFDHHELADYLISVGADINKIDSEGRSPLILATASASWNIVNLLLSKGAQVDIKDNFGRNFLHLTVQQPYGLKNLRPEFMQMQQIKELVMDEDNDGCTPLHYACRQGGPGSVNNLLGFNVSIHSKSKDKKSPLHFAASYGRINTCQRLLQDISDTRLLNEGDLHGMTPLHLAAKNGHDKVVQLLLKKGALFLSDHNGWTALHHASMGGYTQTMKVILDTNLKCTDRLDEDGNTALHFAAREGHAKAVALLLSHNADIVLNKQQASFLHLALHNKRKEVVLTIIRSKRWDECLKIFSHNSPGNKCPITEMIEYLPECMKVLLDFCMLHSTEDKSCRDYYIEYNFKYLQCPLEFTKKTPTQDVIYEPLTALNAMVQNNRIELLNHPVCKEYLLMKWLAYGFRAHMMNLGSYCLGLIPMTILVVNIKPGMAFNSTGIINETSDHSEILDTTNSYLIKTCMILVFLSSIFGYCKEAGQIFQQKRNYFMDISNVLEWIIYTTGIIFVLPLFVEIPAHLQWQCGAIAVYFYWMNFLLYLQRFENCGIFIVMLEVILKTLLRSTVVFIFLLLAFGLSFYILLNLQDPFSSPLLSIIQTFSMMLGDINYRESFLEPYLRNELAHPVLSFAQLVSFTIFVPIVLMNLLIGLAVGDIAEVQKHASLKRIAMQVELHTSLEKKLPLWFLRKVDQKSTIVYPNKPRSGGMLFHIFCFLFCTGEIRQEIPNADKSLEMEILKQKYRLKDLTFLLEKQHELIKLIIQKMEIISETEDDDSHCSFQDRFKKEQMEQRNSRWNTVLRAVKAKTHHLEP
Method: Similarly, selectivity against hTRPA1 (expressed in CHO) and hTRPV1 (expressed in HEK-293) was assessed using FLIPR® calcium assay (at 100 μM, i.e., 10-fold more than the concentration for maximal response; see FIG. 12). […] For the agonist effect assessment, the effect of AX-8 was evaluated in the absence of the positive control agonist. The maximal signal elicited in the presence of the respective agonist (300 μM mustard oil for TRPA1; 3 μM capsaicin for TRPV1) was set to 100% activation and the signal in the presence of the vehicle control (HB-PS) was set to 0% activation. For the antagonist effect assessment, the channels were activated with the respective positive control agonist (100 μM mustard oil for TRPA1; 0.1 μM capsaicin for TRPV1). The effects of AX-8 to inhibit the signal was examined after agonist stimulation and compared to the respective positive control antagonist (3 μM ruthenium red). For each channel, the signal elicited in the presence of the respective positive control agonist was set to 100 (0% inhibition) and the signal in the presence of the respective positive control antagonist was set to 0 (100% inhibition).

capsaicin-induced cough = test: Capsaicin-induced cough in awake guinea pig; assay type: in vivo
Method: AX-8's antitussive effect was evaluated in a standardized guinea pig model of cough (see, e.g., Brozmanova et al., 2012; Dong et al., 2016). Guinea pigs were placed in a plethysmography chamber and exposed for 10 minutes to nebulized capsaicin solution (0.1 mM) to induce cough. The cough frequency was detected as a transient change in airflow in the chamber and the signal recorded via a pressure transducer and computer. Additionally, the audio-amplified count was also recorded electronically. Coughs were counted for the 10-minute exposure period. The experiment was visually monitored by the investigator. A 5 mg/mL AX-8 solution was prepared by dissolving AX-8 in absolute ethanol at 200 mg/mL and then diluting in a solution of 4 mg/mL of sweet potato powder in saline (i.e., vehicle). The baseline frequency of coughing in response to exposure to capsaicin mist was recorded for the control (vehicle only) and treated (AX-8) group of animals (n=10 animals per group). Seven days later, animals were anesthetized with diethyl ether and a small animal laryngoscope was used to place the tip of a micro sprayer syringe in the oral cavity. Vehicle or AX-8 was administered into the oropharyngeal region at 75 μL per animal (n=10 animals per group). […] Ten minutes after administration, the guinea pigs were exposed to the capsaicin mist and the number of coughs recorded.

[1] = Clinical Trial 2: safety and tolerability in RCC patients; assay type: in vivo, human; conditions: single 5 mg ODT
Excerpt: Safety assessments consisted of monitoring and recording protocol-defined adverse events (AEs) and serious adverse events (SAEs); vital signs; physical examinations; clinical laboratory assessments; electrocardiograms (ECGs); and other protocol-specified tests that were deemed critical to the safety evaluation of the study drug.

[2] = Phase 1 study in healthy volunteers: safety and tolerability; assay type: in vivo, human; conditions: single dose 5 mg ODT, 12 healthy subjects; no remarkable adverse events

T1 sequence (Q7Z2W7 whole entry): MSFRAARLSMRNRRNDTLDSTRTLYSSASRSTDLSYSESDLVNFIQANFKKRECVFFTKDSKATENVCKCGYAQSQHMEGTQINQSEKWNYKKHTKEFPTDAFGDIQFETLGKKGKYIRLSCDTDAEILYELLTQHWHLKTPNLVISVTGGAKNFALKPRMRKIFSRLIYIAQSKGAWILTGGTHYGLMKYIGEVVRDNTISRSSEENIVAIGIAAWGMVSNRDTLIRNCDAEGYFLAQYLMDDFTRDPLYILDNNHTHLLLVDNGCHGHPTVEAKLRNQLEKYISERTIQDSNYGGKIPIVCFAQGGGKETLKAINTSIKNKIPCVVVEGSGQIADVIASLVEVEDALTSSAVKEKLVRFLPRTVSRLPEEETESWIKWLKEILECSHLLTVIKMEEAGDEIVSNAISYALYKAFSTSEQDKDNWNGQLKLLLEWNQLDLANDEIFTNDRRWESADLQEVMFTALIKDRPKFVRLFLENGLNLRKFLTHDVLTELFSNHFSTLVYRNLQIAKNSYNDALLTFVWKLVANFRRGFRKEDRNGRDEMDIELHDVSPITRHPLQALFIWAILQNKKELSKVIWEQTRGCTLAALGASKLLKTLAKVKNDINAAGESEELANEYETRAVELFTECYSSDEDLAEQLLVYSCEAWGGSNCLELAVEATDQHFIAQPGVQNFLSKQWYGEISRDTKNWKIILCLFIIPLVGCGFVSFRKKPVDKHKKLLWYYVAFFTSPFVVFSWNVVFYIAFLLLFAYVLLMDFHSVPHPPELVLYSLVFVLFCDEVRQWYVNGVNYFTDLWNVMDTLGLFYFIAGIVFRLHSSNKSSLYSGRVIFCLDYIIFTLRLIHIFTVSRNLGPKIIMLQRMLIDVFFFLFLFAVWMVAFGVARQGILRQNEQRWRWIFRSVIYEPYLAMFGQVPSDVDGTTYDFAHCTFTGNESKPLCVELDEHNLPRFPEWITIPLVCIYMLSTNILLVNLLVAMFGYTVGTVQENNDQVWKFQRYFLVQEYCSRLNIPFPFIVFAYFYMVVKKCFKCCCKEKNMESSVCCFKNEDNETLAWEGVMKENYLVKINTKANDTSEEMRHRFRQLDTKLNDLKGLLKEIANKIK

CC(C)OC(=O)CNC(=O)[C@@H]1C[C@H](C)CC[C@H]1C(C)C [AX-8, [((1R,2S,5R)-2-isopropyl-5-methyl-cyclohexanecarbonyl)-amino]-acetic acid isopropyl ester]
EC50 (human TRPM8; calcium signal AUC, Fluo-8, n=8, read-out: half-maximal response concentration (EC50), activation of human TRPM8): 390 nM
potency as TRPM8 agonist relative to menthol (human TRPM8; ratio of EC50 values): ~6 times
antagonistic interaction with TRPA1 (hTRPA1; at 100 μM, channel activated with 100 μM mustard oil, control antagonist 3 μM ruthenium red): no agonistic or antagonistic interactions
agonistic activity on hTRPA1 (hTRPA1; concentrations ≤100 μM, % of mustard oil maximal response, n=4): no agonistic or antagonistic interactions; also recorded: no significant agonistic activity on hTRPA1
capsaicin-induced coughs after treatment (capsaicin-induced cough; 0.375 mg/animal sprayed in oropharyngeal region 10 min before 0.1 mM capsaicin mist, Baseline (T) 25.0±2.0, n=10, p<0.01): 9.0±2.0 coughs/10 min
effect on capsaicin-induced cough (capsaicin-induced cough; 5 mg/mL solution, 75 μL per animal): inhibited significantly capsaicin-induced cough; also recorded: inhibits cough induced by an irritant
compound-related adverse effects [1]: No compound-related adverse effects were observed
safety and tolerability [2]: well tolerated
